Entries after “also recorded” stand apart in the source; their conditions may differ.
Experiments:
HMEC cells = assay: Nuclear localisation by immunofluorescence in HMEC; type: cell-based, human; conditions: fluorescence microscopy, FIG. 3b and 13
Protocol: To determine localisation of “superdegron” which has a degree of homology with iTAG1, the inventors cloned superdegron into the expression vector to replace iTAG1 as the degron fused with GFP.
HMEC cells were seeded in glass bottom 96-well plates (Perkin Elmer) at a 1000 cells/well and treated with 1 μg/ml DOX for 24 h to induce construct. Cells were fixed using 4% paraformaldehyde in PBS solution for 15 min at 37° C. and permeabilised with 0.05% Titon-X-100 detergent for 10 min at room temperature. Prior to proceeding to cell imaging, the cells were incubated for a min with 1 μg/ml DAPI (ThermoFisher Scientific) to stain the cell nuclei. Cells were visualised on the Zeiss Axio Vert.A1 FL-LED inverted epifluorescence microscope (Zeiss) and images were captured using the ZEN Blue software (Zeiss).

[1] = test system: anti-B7H3 chimeric antigen receptor (TE9); assay: Cell surface expression of tagged CAR in transduced Jurkat and 293T cells by flow cytometry; type: cell-based, human
Protocol: Initial experiments evaluated expression and degradation in human Jurat T cell leukaemia cells or human 293T cells, which were stably transduced with untagged, iTAG1(DCD23)-tagged, and iTAG2-tagged anti-B7H3 CAR-T cells. Here the relative expression of the CAR and the CD34 marker gene are determined by direct staining and evaluation by flow cytometry.
Jurkat and 293T cell lines were grown in DMEM with 10% fetal calf serum and transduced with constructs containing CAR+/−degrader tag. Transduction efficiency was analysed 72 hours post transduction by flow cytometry, staining for the CD34 epitope encoded by the RQR8 gene.
(§1) CAR surface expression for transduction efficiency and degradation experiments in primary cells and cell lines was quantified using his-tagged B7H3 protein in combination with anti his-tagged fluorescent antibody (J095G45, BioLegend), and directly fluorescently labelled anti CD34 antibody (QBEnd10, R&D), using LSR2 cytometer. Analysis used Flo-Jo software.

CRBN/DDB1 complex = molecular target: T1, CRBN/DDB1 complex (Homo sapiens, UniProt Q96SW2); assay: Size exclusion chromatography of CRBN/DDB1 and iTAG2 with or without iberdomide; type: binding; conditions: 15 μM CRBN/DDB1, 50 μM iTAG2, 100 μM iberdomide, FIG. 14
T1 construct: made in house
From the text: Biochemical evidence for IMiD-dependent formation of a direct interaction between iTAG2 and the CRBN/DDB1 complex was generated using size exclusion chromatography (SEC). Purified CRBN/DDB1 protein complex and iTAG2 protein were mixed together and subjected to SEC in the presence or absence of iberdomide, shown in FIG. 14. The SEC peak 1 corresponding to the higher molecular weight species was shifted towards a lower elution time in the presence of iberdomide, with a slight increase in the optical density at 280 nm, which is consistent with the formation of a larger complex in the presence of iberdomide (FIG. 14A). SDS-PAGE analysis of representative fractions of the SEC analysis in the absence of iberdomide confirmed that the SEC peak 1 contains only DDB1 and CRBN proteins, with iTAG2 only present in the SEC peak 2 (FIG. 14B).
SEC was performed using a Superose 6 5/150 GL column (Cytiva Life Sciences) mounted on an Agilent 1260 Infinity II LC System HPLC system. […] 100 μL fractions were collected and samples spanning the elution peaks were analysed by SDS-PAGE on precast NuPAGE 4-12% Bis-Tris gels (Invitrogen) using standard protocols, with SeeBlue Plus2 pre-stained protein standards (Invitrogen) loaded on the first lane of each gel.

[2] = test system: iTAG2 and DCD23-tagged chimeric antigen receptor (TE9-28-Z); assay: IMiD induced degradation of tagged CAR in transduced Jurkat cells; type: cell-based, human; conditions: lenalidomide, pomalidomide, iberdomide
Protocol: (§2) CAR expression in PBMC-derived T cells following degradation with 10, 1, 0.1, 0.01, 0.001 or 0 uM iberdomide after 24 hours, was assessed by flow cytometry. To assess CAR functionality+/−degrader tag, transduced T cells were cultured 24 hours with SUPT1+/−B7H3 at a 1:1 ratio. Supernatant was harvested, and IL-2 and IFNγ levels determined by ELISA.
as §1

TE9-28-Z CAR = assay: IMiD induced degradation and re-expression of tagged CAR in primary human T cells; type: cell-based; conditions: washed in PBS, rested 24 h in RPMI1640, FIG. 15
From the text: The re-expression of degraded chimeric antigen receptors following removal of the degrader drug is important for the CAR-T cell to be able to toggle between active and resting states, thereby allowing additional therapeutic manipulation and fine-tuning.
To evaluate the general functionality of the TE9-28Z-iTAG2 anti-B7H3 CAR-T construct when expressed from a different viral vector, driven by alternate promoter, the construct was cloned into third generation lentivector pCLL2 backbone and viral supernatant was generated by transient transfection of 293T cells, with virus pseudotyped with VSV-G. Two versions of the TE9-28Z-iTAG2 sequence were evaluated in this format, which were with and without codon optimisation and removal of cloning scars. There are no differences in amino acid sequence of iTAG2 between original (construct 3) and codon optimised (construct 4) versions (FIG. 16 a and b). […] The log reduction in CAR expression as expressed as geometric median fluorescence intensity (gMFI) was highly consistent. […]
PBMC-derived T cells from 2 healthy donor blood cones were cultured following CD56 depletion (day0) which was performed using Miltenyi CD56 depletion beads and magnetic negative selection using LD columns according to manufacturer's instructions. […] Transduction efficiency was assessed 4 days post transduction by flow cytometry staining for RQR8 and CAR expression.
CAR expression in PBMC-derived T cells following degradation with 10, 1, 0.1, 0.01, 0.001 or 0 uM iberdomide after 24 hours, was assessed by flow cytometry. […] Supernatant was harvested, and IL-2 and IFNγ levels determined by ELISA.
CAR surface expression for transduction efficiency and degradation experiments in primary cells and cell lines was quantified using his-tagged B7H3 protein in combination with anti his-tagged fluorescent antibody (J095G45, BioLegend), and directly fluorescently labelled anti CD34 antibody (QBEnd10, R&D), using LSR2 cytometer. […]

[3] = test system: SupT1 cells transduced to express human B7H3; assay: CAR functionality: cytokine ELISA after co-culture with SupT1-B7H3 targets; type: cell-based; conditions: primary human T cells
From the text: To evaluate whether the brighter CAR expression of iTAG2 tagged CAR compared with DCD23-tagged CAR translated into greater effector function, the respective CAR-T populations from the two independent donors were co-cultured overnight with human SupT1 leukaemia target cells isogenic for the target antigen B7H3. Wild type SupT1 have no detectable B7H3 expression. Following overnight culture of T cells with the targets, culture supernatant was harvested and evaluated for inflammatory cytokines interferon gamma and Interleukin-2 by ELISA (FIG. 9).
as §2

Chain of TE9-28-Z CAR (Q96SW2 whole entry, one chain of several): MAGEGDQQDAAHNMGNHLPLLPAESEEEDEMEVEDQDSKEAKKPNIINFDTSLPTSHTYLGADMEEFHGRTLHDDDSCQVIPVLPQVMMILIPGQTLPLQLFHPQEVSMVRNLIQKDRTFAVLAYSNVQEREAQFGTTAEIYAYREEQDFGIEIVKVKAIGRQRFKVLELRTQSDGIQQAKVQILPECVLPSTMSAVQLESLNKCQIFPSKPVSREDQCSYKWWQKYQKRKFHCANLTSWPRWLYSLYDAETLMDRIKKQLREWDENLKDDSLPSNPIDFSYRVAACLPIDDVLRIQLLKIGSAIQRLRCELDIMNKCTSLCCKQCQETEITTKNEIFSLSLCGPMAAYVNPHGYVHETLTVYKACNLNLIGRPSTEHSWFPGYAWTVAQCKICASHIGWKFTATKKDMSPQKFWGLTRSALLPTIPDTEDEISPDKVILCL
T1 sequence (Q96SW2 whole entry, one chain of several): as above
T1 sequence (Q16531 2-1140 partner, one chain of several): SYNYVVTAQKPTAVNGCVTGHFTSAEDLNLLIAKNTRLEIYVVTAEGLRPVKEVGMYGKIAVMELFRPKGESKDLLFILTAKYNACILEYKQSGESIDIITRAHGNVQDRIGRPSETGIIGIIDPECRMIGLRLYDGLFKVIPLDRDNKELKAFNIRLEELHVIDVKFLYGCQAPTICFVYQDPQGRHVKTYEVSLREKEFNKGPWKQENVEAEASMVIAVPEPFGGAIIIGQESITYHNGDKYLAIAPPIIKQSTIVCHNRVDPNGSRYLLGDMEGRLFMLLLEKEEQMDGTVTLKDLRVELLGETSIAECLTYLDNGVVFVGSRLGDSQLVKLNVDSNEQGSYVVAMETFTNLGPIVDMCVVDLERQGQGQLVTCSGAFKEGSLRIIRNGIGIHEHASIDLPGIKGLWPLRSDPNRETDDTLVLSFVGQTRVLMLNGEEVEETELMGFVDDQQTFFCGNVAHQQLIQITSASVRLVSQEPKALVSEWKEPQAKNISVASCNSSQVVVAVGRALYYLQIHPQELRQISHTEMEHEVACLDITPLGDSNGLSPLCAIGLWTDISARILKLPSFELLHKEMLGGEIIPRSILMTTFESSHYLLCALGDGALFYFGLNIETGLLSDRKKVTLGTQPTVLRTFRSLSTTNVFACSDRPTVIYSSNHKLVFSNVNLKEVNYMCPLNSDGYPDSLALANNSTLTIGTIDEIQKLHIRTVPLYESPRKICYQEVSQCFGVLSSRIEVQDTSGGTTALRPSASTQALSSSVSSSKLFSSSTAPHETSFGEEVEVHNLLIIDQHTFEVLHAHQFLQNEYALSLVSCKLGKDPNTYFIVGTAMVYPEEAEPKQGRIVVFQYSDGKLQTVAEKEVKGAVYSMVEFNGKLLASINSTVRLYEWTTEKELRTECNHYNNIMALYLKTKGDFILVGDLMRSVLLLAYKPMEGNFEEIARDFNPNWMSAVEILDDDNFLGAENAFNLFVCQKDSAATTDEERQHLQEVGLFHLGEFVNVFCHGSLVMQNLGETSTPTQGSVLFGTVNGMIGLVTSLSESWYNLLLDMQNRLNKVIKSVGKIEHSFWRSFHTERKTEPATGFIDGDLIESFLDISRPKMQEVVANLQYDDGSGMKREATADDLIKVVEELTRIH

Which results are given for “iTAG2: mutated iTAG1 degron tag, SEQ ID NO: 43, PNVLMVHNESHTGEIPLQCEICGFTCEQAGNLLNHIELHSGEIPFKCHLCNYACRRRDAL (iTAG2)”?
nuclear accumulation / localisation of tagged EGFP/GFP (HMEC cells): abolished nuclear accumulation; also recorded: cytoplasmic localisation; cell surface expression of tagged CAR relative to CD34 marker ([1]; transduced 293T and Jurkat cells, FIG. 6): superior cell surface expression; surface expression of tagged CARs ([1]; transduced Jurkat cells, 41BB and CD28 versions of TE9 CAR, FIG. 10): same expression as wild type; complex formation by SEC and SDS-PAGE (CRBN/DDB1 complex): formation of a complex between DDB1, CRBN and iTAG2 in the presence of iberdomide; time of drug treatment at which maximal reduction of surface expression is detectable [2]: 4 h; CAR re-expression after drug washout (TE9-28-Z CAR): re-upregulated after IMiD washout; antigen-dependent reactivity, superiority over DCD23-tagged CAR-T [3]: approximately 10 fold; effector function compared with untagged CAR ([3]; SupT1-B7H3, FIG. 9): not significantly different to untagged CAR

Reference: patent publication US20260166084A1, “NOVEL DRUG-INDUCIBLE DEGRADATION TAGS” (THE INSTITUTE OF CANCER RESEARCH: ROYAL CANCER HOSPITAL, priority 2022, published 2026)
